From US6479435B1, “Diaryl ethers and processes for their preparation and herbicidal and desiccant compositions containing them” (ISK Americas Incorporated, priority 1997, dated 2002)

Assays:
Type in all cases: in vivo
[1] = system: Johnsongrass (Sorghum halepense, SORHA); test: Post-emerge greenhouse herbicide test, phytotoxicity rating; settings: 500 g al/ha, 14 days after application
How it was run: (§1)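 Plants at the 2-3 leaf stage, sown 8-21 days earlier, were track-sprayed post-emergence with compound in acetone plus 0.25% v/v non-ionic surfactant at 63-1000 g ai/ha (187 l/ha). Damage was rated at 14 days on a 0-100 scale (0 none, 100 all plants dead), for both crop injury and weed control.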

[2] = system: velvetleaf (Abutilon theophrasti, ABUTH); test: as above; settings: 14 days after application
How it was run: as §1

[3] = system: redroot pigweed (Amaranthus retroflexus, AMARE); test: as above; settings: 14 days after application
How it was run: as §1

[4] = system: barnyardgrass (Echinochloa crusgalli, ECHCG); test: as above; settings: 14 days after application
How it was run: as §1

[5] = system: large crabgrass (Digitaria sanguinalis, DIGSA); test: as above; settings: 14 days after application
How it was run: as §1

[6] = system: green foxtail (Setaria viridis, SETVI); test: as above; settings: 14 days after application
How it was run: as §1

[7] = system: ivyleaf morningglory (Ipomoea hederacea, IPOHE); test: as above; settings: 14 days after application
How it was run: as §1

[8] = system: sicklepod (Cassia obtusifolia, CASOB); test: as above; settings: 14 days after application
How it was run: as §1

[9] = system: lambsquarters (Chenopodium album, CHEAL); test: as above; settings: 14 days after application
How it was run: as §1

[10] = system: soybean (Glycine max L., var. Pella 86, SOY); test: Pre-emerge greenhouse test, crop damage rating; settings: 14 days after application, rating scale 0-100
How it was run: (§2)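 Seeds sown in sandy loam one day before track-sprayer application of acetone solutions at 125–1000 g ai/ha (187 l/ha), then surface-watered to incorporate and bottom-watered. Injury scored visually at 14 days on a 0–100 scale (0 no damage, 100 complete death).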

[11] = system: common ragweed (Ambrosia artemisiifolia L., AMBEL); test: Post-emerge greenhouse herbicide test, phytotoxicity rating; settings: 14 days after application
How it was run: as §1

[12] = system: soybean (Glycine max L., var. Pella 86, SOY); test: Post-emerge greenhouse test, crop damage rating; settings: 14 days after application
How it was run: as §1

[13] = system: field corn (Zea mays L., var. Dekalb 535, CORN); test: Post-emerge greenhouse test, crop damage rating; settings: 14 days after application
How it was run: as §1

[14] = system: upland rice (Oryza sp., var.Tebonnet, RICE); test: Post-emerge greenhouse test, crop damage rating; settings: 14 days after application
How it was run: as §1

[15] = system: Johnsongrass (Sorghum halepense, SORHA); test: Pre-emerge greenhouse herbicide test, phytotoxicity rating; settings: 500 g ai/ha, 14 days after application, rating scale 0-100
How it was run: as §2

[16] = system: velvetleaf (Abutilon theophrasti, ABUTH); test: as above; settings: 14 days after application, rating scale 0-100
How it was run: as §2

[17] = system: common ragweed (Ambrosia artemisiifolia L., AMBEL); test: as above; settings: 14 days after application, rating scale 0-100
How it was run: as §2

[18] = system: redroot pigweed (Amaranthus retroflexus, AMARE); test: as above; settings: 14 days after application, rating scale 0-100
How it was run: as §2

[19] = system: barnyardgrass (Echinochloa crusgalli, ECHCG); test: as above; settings: 14 days after application, rating scale 0-100
How it was run: as §2

[20] = system: large crabgrass (Digitaria sanguinalis, DIGSA); test: as above; settings: 14 days after application, rating scale 0-100
How it was run: as §2

[21] = system: green foxtail (Setaria viridis, SETVI); test: as above; settings: 14 days after application, rating scale 0-100
How it was run: as §2

[22] = system: ivyleaf morningglory (Ipomoea hederacea, IPOHE); test: as above; settings: 14 days after application, rating scale 0-100
How it was run: as §2

[23] = system: sicklepod (Cassia obtusifolia, CASOB); test: as above; settings: 14 days after application, rating scale 0-100
How it was run: as §2

[24] = system: lambsquarters (Chenopodium album, CHEAL); test: as above; settings: 14 days after application, rating scale 0-100
How it was run: as §2

[25] = system: field corn (Zea mays L., var. Dekalb 535, CORN); test: Pre-emerge greenhouse test, crop damage rating; settings: 14 days after application, rating scale 0-100
How it was run: as §2

[26] = system: upland rice (Oryza sp., var.Tebonnet, RICE); test: Pre-emerge greenhouse test, crop damage rating; settings: 14 days after application, rating scale 0-100
How it was run: as §2

O=C1C2CCCCN2C(=O)N1c1cc(Oc2ncccc2C(F)(F)F)c(Cl)cc1F (stereo not shown) [Compound 8-4]
SORHA phytotoxicity rating (0-100) [1]: 0 | ABUTH phytotoxicity rating (0-100) ([2]; 63 g al/ha): 70 | ABUTH phytotoxicity rating (0-100) ([2]; 500 g al/ha): 85 | AMARE phytotoxicity rating (0-100) ([3]; 63 g al/ha): 60 | AMARE phytotoxicity rating (0-100) ([3]; 500 g al/ha): 100 | ECHCG phytotoxicity rating (0-100) ([4]; 63 g al/ha): 0 | ECHCG phytotoxicity rating (0-100) ([4]; 500 g al/ha): 0 | DIGSA phytotoxicity rating (0-100) ([5]; 63 g al/ha): 0 | DIGSA phytotoxicity rating (0-100) ([5]; 500 g al/ha): 0 | SETVI phytotoxicity rating (0-100) ([6]; 63 g al/ha): 10 | SETVI phytotoxicity rating (0-100) ([6]; 500 g al/ha): 10 | IPOHE phytotoxicity rating (0-100) ([7]; 63 g al/ha): 50 | IPOHE phytotoxicity rating (0-100) ([7]; 500 g al/ha): 60 | CASOB phytotoxicity rating (0-100) ([8]; 63 g al/ha): 20 | CASOB phytotoxicity rating (0-100) ([8]; 500 g al/ha): 40 | CHEAL phytotoxicity rating (0-100) ([9]; 63 g al/ha): 70 | CHEAL phytotoxicity rating (0-100) ([9]; 500 g al/ha): 75 | crop damage rating SOY ([10]; 125 g ai/ha): 0 | crop damage rating SOY ([10]; 500 g ai/ha): 0 | AMBEL phytotoxicity rating (0-100) ([11]; 63 g al/ha): 0 | AMBEL phytotoxicity rating (0-100) ([11]; 500 g al/ha): 0 | SOY crop damage rating (0-100) ([12]; 63 g al/ha): 20 | SOY crop damage rating (0-100) ([12]; 500 g al/ha): 30 | CORN crop damage rating (0-100) ([13]; 63 g al/ha): 5 | CORN crop damage rating (0-100) ([13]; 500 g al/ha): 10 | RICE crop damage rating (0-100) ([14]; 63 g al/ha): 0 | RICE crop damage rating (0-100) ([14]; 500 g al/ha): 0 | phytotoxicity rating SORHA [15]: 70 | phytotoxicity rating ABUTH ([16]; 125 g ai/ha): 100 | phytotoxicity rating ABUTH ([16]; 500 g ai/ha): 100 | phytotoxicity rating AMBEL ([17]; 125 g ai/ha): 20 | phytotoxicity rating AMBEL ([17]; 500 g ai/ha): 0 | phytotoxicity rating AMARE ([18]; 125 g ai/ha): 100 | phytotoxicity rating AMARE ([18]; 500 g ai/ha): 100 | phytotoxicity rating ECHCG ([19]; 125 g ai/ha): 10 | phytotoxicity rating ECHCG ([19]; 500 g ai/ha): 30 | phytotoxicity rating DIGSA ([20]; 125 g ai/ha): 30 | phytotoxicity rating DIGSA ([20]; 500 g ai/ha): 90 | phytotoxicity rating SETVI ([21]; 125 g ai/ha): 50 | phytotoxicity rating SETVI ([21]; 500 g ai/ha): 100 | phytotoxicity rating IPOHE ([22]; 125 g ai/ha): 0 | phytotoxicity rating IPOHE ([22]; 500 g ai/ha): 0 | phytotoxicity rating CASOB ([23]; 125 g ai/ha): 30 | phytotoxicity rating CASOB ([23]; 500 g ai/ha): 90 | phytotoxicity rating CHEAL ([24]; 125 g ai/ha): 70 | phytotoxicity rating CHEAL ([24]; 500 g ai/ha): 100 | crop damage rating CORN ([25]; 125 g ai/ha): 0 | crop damage rating CORN ([25]; 500 g ai/ha): 0 | crop damage rating RICE ([26]; 125 g ai/ha): 0 | crop damage rating RICE ([26]; 500 g ai/ha): 30

O=C1C2=CCCCN2C(=O)N1c1cc(Oc2ncccc2C(F)(F)F)c(Cl)cc1F [Compound 4-2]
SORHA phytotoxicity rating (0-100) [1]: 0 | ABUTH phytotoxicity rating (0-100) ([2]; 500 g al/ha): 70 | AMARE phytotoxicity rating (0-100) ([3]; 500 g al/ha): 100 | ECHCG phytotoxicity rating (0-100) ([4]; 500 g al/ha): 0 | DIGSA phytotoxicity rating (0-100) ([5]; 500 g al/ha): 0 | SETVI phytotoxicity rating (0-100) ([6]; 500 g al/ha): 10 | IPOHE phytotoxicity rating (0-100) ([7]; 500 g al/ha): 99 | CASOB phytotoxicity rating (0-100) ([8]; 500 g al/ha): 20 | CHEAL phytotoxicity rating (0-100) ([9]; 500 g al/ha): 90 | crop damage rating SOY ([10]; 500 g ai/ha): 0 | AMBEL phytotoxicity rating (0-100) ([11]; 500 g al/ha): 75 | SOY crop damage rating (0-100) ([12]; 500 g al/ha): 30 | CORN crop damage rating (0-100) ([13]; 500 g al/ha): 5 | RICE crop damage rating (0-100) ([14]; 500 g al/ha): 10 | phytotoxicity rating SORHA [15]: 0 | phytotoxicity rating ABUTH ([16]; 500 g ai/ha): 95 | phytotoxicity rating AMBEL ([17]; 500 g ai/ha): 100 | phytotoxicity rating AMARE ([18]; 500 g ai/ha): 100 | phytotoxicity rating ECHCG ([19]; 500 g ai/ha): 0 | phytotoxicity rating DIGSA ([20]; 500 g ai/ha): 0 | phytotoxicity rating SETVI ([21]; 500 g ai/ha): 40 | phytotoxicity rating IPOHE ([22]; 500 g ai/ha): 0 | phytotoxicity rating CASOB ([23]; 500 g ai/ha): 0 | phytotoxicity rating CHEAL ([24]; 500 g ai/ha): 100 | crop damage rating CORN ([25]; 500 g ai/ha): 0 | crop damage rating RICE ([26]; 500 g ai/ha): 0
